In PubChem BioAssay (NCI):
Where “and” joins values, the source holds several entries; their conditions need not be identical. Equal entries are not always repeated.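 Step 1: Grow cells in 96-well plates. Step 2: Expose to compound for 48 hours at 5 concentrations. Step 3: Interpolate endpoints linearly; if unreached, use highest concentration. GI50 = concentration required for 50% inhibition of growth. TGI: concentration producing complete growth inhibition.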

Legend:
Experiment in all cases: NCI tumour cell line growth inhibition, 48 h
[1] = system: TK-10 renal
[2] = system: UO-31 renal
[3] = system: OVCAR-5 ovarian
[4] = system: SF-295 CNS
[5] = system: A549 NSCLC
[6] = system: HCT-15 colon
[7] = system: KM12 colon
[8] = system: MOLT-4 leukemia
[9] = system: SK-OV-3 ovarian
[10] = system: NCI-H226 lung

| Structure (SMILES) | TGI [1] | TGI [2] | TGI [3] | TGI [4] | TGI [5] | TGI [6] | TGI [7] | TGI [8] | TGI [9] | TGI [10] | GI50 [2] | GI50 [3] | GI50 [4] | GI50 [7] | GI50 [8] | GI50 [9] | GI50 [10] | GI50 [1] | GI50 [5] | GI50 [6] |
| --- | --- | --- | --- | --- | --- | --- | --- | --- | --- | --- | --- | --- | --- | --- | --- | --- | --- | --- | --- | --- |
| C/C=C/[P+](c1ccccc1)(c1ccccc1)c1ccccc1 | 20.3 µM | 88.6 µM | 33.2 µM | 12 µM | > 100 µM | > 100 µM | 7.7 µM | 19.6 µM | 10.5 µM | 41.4 µM |  |  |  |  |  |  |  |  |  |  |
| CN(C)c1ccc(/C=N\NC(=O)CSCC(=O)N/N=C/c2ccc(N(C)C)cc2)cc1 | > 100 µM | > 100 µM | > 100 µM | > 100 µM | > 100 µM | 53.2 µM | > 100 µM | > 100 µM | > 100 µM | > 100 µM |  |  |  |  |  |  |  |  |  |  |
| O=c1ccc2cc(O)c(O)cc2o1 | > 100 µM | > 100 µM | > 100 µM | > 100 µM | > 100 µM | > 100 µM | > 100 µM | > 100 µM | > 100 µM | > 100 µM |  |  |  |  |  |  |  |  |  |  |
| NC(=O)CCCC(NCc1c2ccccc2nc2ccccc12)C(=O)O (stereo not given) | > 100 µM |  | > 100 µM | > 100 µM | > 100 µM | > 100 µM | > 100 µM | 66.2 µM | > 100 µM | > 100 µM |  |  |  |  |  |  |  |  |  |  |
| O=c1oc2ccccc2c2c(=O)c3ccc(OC/C(=N/O)c4ccc(Cl)cc4)cc3oc12 |  | 30.8 µM | 37 µM | 7.1 µM | 32 µM | 24.5 µM | 14 µM | 8.79 µM | 24.3 µM | 36.2 µM |  |  |  |  |  |  |  |  |  |  |
| CN(C)CCNc1nc(-c2ccc3ccccc3c2)nc2nc[nH]c12 | 19.4 µM | 12.9 µM | 26 µM | 26.9 µM | 26.3 µM | 18.3 µM | 19.3 µM | 18.6 µM | 20.8 µM | 16.6 µM |  |  |  |  |  |  |  |  |  |  |
| NC(N)=N/N=C/c1c(-c2ccccc2)nc2n1ccc1nc(-c3ccccc3)c(/C=N/N=C(N)N)n12 | > 100 µM | > 100 µM | > 100 µM | > 100 µM | > 100 µM | > 100 µM | > 100 µM | > 100 µM | > 100 µM | > 100 µM |  |  |  |  |  |  |  |  |  |  |
| Cc1ccc(S(=O)(=O)NCCSCCNS(=O)(=O)c2ccc(C)cc2)cc1 | > 100 µM | > 100 µM |  | > 100 µM | > 100 µM | > 100 µM | > 100 µM | > 100 µM | > 100 µM | > 100 µM |  |  |  |  |  |  |  |  |  |  |
| O=S(=O)(Sc1ccc(Cl)cc1)c1ccc(Cl)cc1 | 61.4 µM | 23.9 µM | 37.9 µM | 27.2 µM | 32.7 µM | 40.2 µM | 32.5 µM | 44.5 µM | 85.2 µM | 30.9 µM |  |  |  |  |  |  |  |  |  |  |
| CC(=O)Nc1ccccc1SCCSSCCSc1ccccc1NC(C)=O | > 100 µM | 35.8 µM | 79.2 µM | 73.7 µM | 69.8 µM | 42.2 µM | > 100 µM | > 100 µM | 61.7 µM | 81.8 µM |  |  |  |  |  |  |  |  |  |  |
| CC(=O)C(O)N1C(=O)C=CC1=O (stereo not given) |  |  |  |  | 16.4 µM and 35.9 µM |  | 25 µM and 31.2 µM and 34.7 µM |  |  |  | 2260 µM | 10500 µM |  |  |  |  |  |  |  |  |
| CC1=NN(c2ccccc2)C(=O)/C1=C/c1ccc(O)cc1 | > 100 µM |  | > 100 µM | > 100 µM | > 100 µM | > 100 µM | > 100 µM | > 100 µM | > 100 µM | > 100 µM |  |  |  |  |  |  |  |  |  |  |
| CCCCCCCSc1nc2c(C(=O)OCC)ncn2c2ccccc12 | > 100 µM | > 100 µM | > 100 µM | > 100 µM |  | > 100 µM | > 100 µM | > 100 µM | > 100 µM | > 100 µM |  |  |  |  |  |  |  |  |  |  |
| CC1=C2C(=O)c3ccccc3C(=O)[C@H]2[C@H]2CCO[C@H]2O1 | 67 µM | 35.7 µM | 49.2 µM | 48.9 µM | > 100 µM | 86 µM | 58.1 µM | > 100 µM | > 100 µM | > 100 µM |  |  |  |  |  |  |  |  |  |  |
| CCCCCCNC(=O)c1cnc(Cl)cn1 | > 100 µM | 3.24 µM | 32.5 µM | 39.4 µM | 42.3 µM | 7.25 µM | 29.3 µM | 23.2 µM | 66 µM | 21.7 µM |  |  |  |  |  |  |  |  |  |  |
| Cc1c2cc[n+](CCN3CCCCC3)cc2c(C)c2c1[nH]c1ccc(O)cc12 | > 57.6 µM | 69.9 µM and 61.2 µM | 62.4 µM and > 77.3 µM | 18.4 µM and > 100 µM | 34.7 µM and 27.8 µM | 75 µM and > 100 µM | 27.9 µM and 14.1 µM | 8.96 µM and 5.96 µM | 33.9 µM and 31.2 µM | 55.1 µM and 32.7 µM | 9.25 µM | 25.2 µM | 5.43 µM | 3.14 µM | 0.267 µM and 0.0385 µM | 4.42 µM | 1.47 µM and 3.75 µM |  |  |  |
| O=C1c2c(c3c4ccccc4[nH]c3c3ccc4ccccc4c23)C(=O)N1CCN1CCCCC1 | > 100 µM |  | 3.49 µM |  | > 100 µM | 3.38 µM | 25.5 µM | 5.35 µM | > 100 µM | 3.39 µM |  | 1.52 µM |  | 3.05 µM | 0.354 µM | 0.801 µM | 1.23 µM | 3.38 µM | 3.1 µM | 0.963 µM |
| CC1C(O)C2(Oc3cc4c(c5c3[C@@H](CC5O)[C@H]2C)CCC2Cc3nc5c(nc3C[C@@]42C)CC2CCC3C4=C[C@H]6O[C@@]7(O[C@@](C)(CO)C[C@@H]7O)C(C)[C@@]6(O)[C@]4(C)[C@@H](O)CC3[C@]2(C)C5)OC1(C)C (stereo not given in full) |  | 3.14 µM | 1.32 µM | 0.105 µM | 0.841 µM | > 3.67 µM | > 3.67 µM |  | 0.502 µM | 1.23 µM |  |  |  |  |  |  |  |  |  |  |
| COc1ccc(-c2c3c(nc4nc(SCCc5ccccc5)nc(N)c24)CCCC3)cc1OC | > 100 µM | > 100 µM | > 100 µM | > 100 µM | > 100 µM | > 100 µM | > 100 µM | > 100 µM | > 100 µM |  |  |  |  |  |  |  |  |  |  |  |
| CC12CCC(C(=O)OC1=O)C(C)(C)O2 (stereo not given) | > 100 µM | > 100 µM | > 100 µM | > 100 µM | > 100 µM |  | > 100 µM | > 100 µM | > 100 µM | > 100 µM |  |  |  |  |  |  |  |  |  |  |
| CN(C)CCCNc1ccc2ncn3c4ccccc4c(=O)c1c23 | 69.7 µM | 52.3 µM | 38.5 µM | 39 µM |  | 85.6 µM | 20.3 µM | 13 µM | > 100 µM | 25.9 µM |  |  |  |  |  |  |  |  |  |  |
| COc1ccc([C@@H]2ON(C)[C@H]3CN(C)C(=O)[C@@H]23)cc1 | > 100 µM | > 100 µM | > 100 µM | > 100 µM | > 100 µM | > 100 µM |  | > 100 µM | > 100 µM | > 100 µM |  |  |  |  |  |  |  |  |  |  |
| CCOC(=O)/C(Cl)=C(\C)Nc1nc2c(ccc3ccccc32)s1 | > 100 µM | > 100 µM | > 100 µM | > 100 µM |  | > 100 µM | > 100 µM | > 100 µM | > 100 µM | > 100 µM |  |  |  |  |  |  |  |  |  |  |
| CN1CCCCC1CCN1CCCCC1 (stereo not given) | > 100 µM | > 100 µM | > 100 µM | > 100 µM | > 100 µM | > 100 µM | > 100 µM | > 100 µM | > 100 µM | > 100 µM |  |  |  |  |  |  |  |  |  |  |
| NC(=O)NN=C(CS)CS |  | 54.4 µM | 55.7 µM | 49.5 µM | 40.7 µM | 51.9 µM | > 100 µM | 65.8 µM | > 100 µM |  |  |  |  |  |  |  |  |  |  |  |
| Cc1cc(NCc2cc(Nc3ccnc4cc(Cl)ccc34)ccc2F)nc(N2CCCC2)n1 | 3.61 µM | 2.86 µM |  |  | 6.02 µM |  | 4.53 µM | 14.3 µM | 5.09 µM |  | 1.27 µM |  |  | 1.97 µM | 1.95 µM | 2.04 µM |  | 1.94 µM | 2.22 µM |  |
| O=NC1C(Cl)C2CC1C1C(Br)C(Br)CC21 (stereo not given) | > 100 µM | > 100 µM | > 100 µM | > 100 µM | > 100 µM | > 100 µM | > 100 µM | > 100 µM | > 100 µM | > 100 µM |  |  |  |  |  |  |  |  |  |  |
